Assay results published in patent US20180200232A1, “PHARMACEUTICAL COMPOSITIONS USEFUL FOR THE TREATEMENT OF TISSUE INJURY” (MedRegen, LLC, priority 2015, published 2018).
“And” between values parts separate entries of the source, which are not always exact repeats. Identical values can stand only once.

Experiments:
CXCR4 chomokin receptor = CXCR4 chomokin receptor (Homo sapiens, UniProt P61073); conditions: read-out: IC50, binds to and inhibits the CXCR4 receptor; cited from earlier work
[1] = tested on: colony forming cells (CFCs) in mobilized peripheral blood; assay: CFC assay for stem cell mobilization activity in mice; format: in vivo, C57/B6 mice; conditions: peripheral blood 3 hours after drug treatment; AMD3100 1.0 mg/kg, Tacrolimus 0.1 mg/kg; vs saline (FIG. 1)
Description: Hematopoietic colony-forming cell (CFC) assays have been used extensively for research and clinical applications in humans and animal models as a way of quantifying and assessing the hematopoietic progenitor content of a cell sample. The stem cell mobilization activity can be measured by using CFC assays in mobilized peripheral blood samples. CFCs are able to divide and differentiate into a colony of more mature cells that can be detected by light microscopy. This allows for the quantification of multipotent stem cell lineages mobilized by pharmaceutical agents.
C57/B6 mice were divided into four treatment groups: 1) control group treated with saline; 2) AMD3100 group (1.0 mg/kg); (3) Tacrolimus group treated with
low-dose (0.1 mg/kg); and (4) AF Combination (containing AMD3100 and Tacrolimus). […] Viable PBMCs were counted and mixed with Methocult GF methylcellulose medium (StemCell Technologies, Vancouver, BC, Canada; Cat.: 03444) containing 100 Uml penicillin and 100 μg/ml streptomycin to give a final density of 1×10^5 viable PBMCs/1.5 ml of medium. […] Colony-forming units (CFUs) were counted using an inverted microscope (Carl Zeiss Microscopy, Thornwood, N.Y.) at ×4. The number of CFUs was determined by dividing the number of viable cells per milliliter by the number of plated cells per well and multiplying by the number of counted CFUs/well.

[2] = tested on: renal allograft rejection; assay: mismatched kidney transplantation in miniature swine; format: in vivo; conditions: for Creatinine (serum): at time of death; for effect on survival: drug alone; for Survival: one animal per value; for post-operative day of death or euthanasia: single perioperative course
Description: Animals—SLA-identified donor and recipient swine (weight 50-80 kg) were obtained from Transplantation Biology Research Center of Massachusetts General Hospital, Boston, Mass. The immunogenetic characteristics of these swine have been described previously (30). Two-haplotype full MHC class I and class II mismatched donors and recipients were used for kidney transplantation. […] Institutional review board (Animal Care and Use Committee) approval was obtained for this study. All animal care and procedures were in compliance with the “Principles of Laboratory Animal Care” formulated by the National Society of Medical Research and the “Guide for the Care and Use of Laboratory Animals” prepared by the Institute of Laboratory Animal Resources, National Research Council, and published by the National Academies Press, revised 2011.
Kidney transplantation—The surgical procedure used for kidney transplantation has been described in Kirkman R L, et al. Transplantation in miniature swine. VI. Factors influencing survival of renal allografts. Transplantation 1979; 28: 18-23, the entire disclosure of which is herein incorporated by reference. Briefly, donor kidneys were flushed and persevered in cold saline for 3-6 h before reperfusion. The recipients underwent bilateral nephrectomy. […] The kidney transplantation was completed with a vesicoureteral anastomosis. An indwelling Silastic central venous catheter was placed surgically into the external or internal jugular vein. The catheter facilitated frequent blood sampling for in vitro assays and for monitoring of renal function and whole-blood Tacrolimus levels.
Rejection monitoring—Kidney function was monitored by serial serum creatinine levels. Serum creatinine and blood urea nitrogen levels were analyzed in the Phenotyping Laboratory of the Department of Comparative Medicine at Johns Hopkins. Biopsies were performed on transplant recipients using needle core biopsy via an open or percutaneous ultrasound-guided approach. Renal allograft rejection was defined as sustained rise in serum creatinine to >10 mg/dL or anuria (normal laboratory value for swine serum creatinine is 1-3 mg/dL).
Histopathological examination—Core needle biopsies or wedge biopsies were performed on renal allografts. Scoring of acute rejection was based on the Banff classification; see, e.g., Solez K, et al. Banff 07 classification of renal allograft pathology: Updates and future directions. Am J Transplant 2008; 8: 753-760, the entire disclosure of which is herein incorporated by reference. Masson trichrome staining was done according to standard protocols.
SLA-identified and -mismatched inbred miniature swine were subjected to bilateral nephrectomy and transplantation (FIG. 1B) as described in Sachs D H, et al. Transplantation in miniature swine. I. Fixation of the major histocompatibility complex. Transplantation 1976; 22: 559-567, the entire disclosure of which is herein incorporated by reference. […] VI. Factors influencing survival of renal allografts. Transplantation 1979; 28: 18-23, supra. Five experimental treatment groups were defined as follows, and each group received subcutaneous injections on days 0, 2, 4, 6, and 8 post-transplantation: (1) saline (n=1); (2) low-dose (0.03 mg/kg) Tacrolimus alone (n=3); (3) AMD3100 1 mg/kg alone (n=3); (4) AF Combination treatment (AMD3100 1 mg/kg and Tacrolimus 0.03 mg/kg) (n=1); and (5) AF Combination treatment as in group 4 but with repeat of the 8-day course at 1, 2, and 3 months post-transplantation.

[3] = tested on: cell migration stimulated by CXCL12; conditions: cited from earlier work
[4] = solubility of Tacrolimus powder in water solutions; format: physicochemical

CXCR4 chomokin receptor, sequence (P61073 whole entry): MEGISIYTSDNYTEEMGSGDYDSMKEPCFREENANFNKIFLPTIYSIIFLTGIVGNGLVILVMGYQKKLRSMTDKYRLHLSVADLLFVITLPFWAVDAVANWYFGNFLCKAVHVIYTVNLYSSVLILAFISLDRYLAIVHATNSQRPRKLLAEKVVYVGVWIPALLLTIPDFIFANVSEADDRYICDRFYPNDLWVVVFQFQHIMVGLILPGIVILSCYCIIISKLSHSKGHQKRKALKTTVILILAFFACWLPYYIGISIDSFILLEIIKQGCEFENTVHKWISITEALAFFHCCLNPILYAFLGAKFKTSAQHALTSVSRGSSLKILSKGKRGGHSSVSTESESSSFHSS

| Molecule | IC50 (CXCR4 chomokin receptor) | number of colony forming cells (CFCs) [1] | Creatinine (serum) ([2]; no re-treatment, listed as AMD3100 only) | effect on survival [2] | Survival ([2]; no re-treatment, s.c. days 0, 2, 4, 6, 8, listed as AMD3100 only) | post-operative day of death or euthanasia [2] | IC50 [3] | solubility in water solutions (e.g., saline) [4] | Survival ([2]; Re-Treatment Yes) | serum creatinine level ([2]; animal 21343, POD 40 after repeat dosing) | serum creatinine level ([2]; animal 21343, POD 56) | serum creatinine level ([2]; animal 21343, before effect of repeat dosing at 1 month) | Creatinine (serum) ([2]; Re-Treatment Yes) | Creatinine (serum) ([2]; no re-treatment, listed as Tacro only) | effect on survival ([2]; listed as FK506) | Survival ([2]; no re-treatment, s.c. days 0, 2, 4, 6, 8, listed as Tacro only) | post-operative day of death ([2]; redosing at 30 days) |
| --- | --- | --- | --- | --- | --- | --- | --- | --- | --- | --- | --- | --- | --- | --- | --- | --- | --- |
| 4F-benzoyl-TN14003 [BKT140] | ~0.001 µM |  |  |  |  |  |  |  |  |  |  |  |  |  |  |  |  |
| c1cc(CN2CCCNCCNCCCNCC2)ccc1CN1CCCNCCNCCCNCC1 [AMD3100, 1,1′-[1,4-phenylenebis(methylene)]bis¬1,4,8,11-tetraazacyclo-tetradecane] |  | significantly increased | 22.3 mg/dL and 17.3 mg/dL and 26.4 mg/dL | no prolongation of survival | 10 days and 16 days and 9 days | 9 POD and 10 POD and 16 POD | 0.051 ± 0.017 µM |  |  |  |  |  |  |  |  |  |  |
| C=CC[C@@H]1/C=C(\C)C[C@H](C)C[C@H](OC)[C@H]2O[C@@](O)(C(=O)C(=O)N3CCCC[C@H]3C(=O)O[C@H](/C(C)=C/[C@@H]3CC[C@@H](O)[C@H](OC)C3)[C@H](C)[C@@H](O)CC1=O)[C@H](C)C[C@@H]2OC [Tacrolimus] |  | significantly increased |  | prolongation of survival |  | 27 POD and 28 POD |  | poor solubility | 56 days | 8.3 mg/dL | 9.8 mg/dL | 12.3 mg/dL | 9.8 mg/dL | 11.5 mg/dL and 9.9 mg/dL | prolonged survival but was ineffective against late rejection | 28 days and 27 days | 56 POD |
